Source: patent US20260284208A1, “SYSTEM” (Oxford University Innovation Limited, priority 2023, published 2026)

Tested on: library of 8,380 IKZF3 degrons (ZF-eGFP/mCherry reporter) in Jurkat cells
Assay: Pooled library screen (FACS, NGS, limma voom LogFC of positive vs negative read counts)
Type: cell-based, human
Protocol: A library of 8,380 IKZF3 degrons was cloned into pLVX-Sprout to create the eGFP/mCherry protein degradation reporter plasmid pool. A lentivirus pool was then generated using the Lenti-X lentiviral vector production method.
Jurkat cells were transduced at a multiplicity of infection of <0.3 with the lentivirus vector library in order to maximise the number of cells with a single integration. Transductions were carried out in 6 well TC-treated cell culture dishes (Falcon) with 3×10^6 cells per well. Cells were incubated for 2 days at 37° C. and 5% CO2 before the supernatant was removed and replaced with fresh media. 6 days post-transduction, mCherry+ cells were isolated via FACS using the FACS Aria Fusion (BD) in a buffer containing PBS (Gibco), 2 mM EDTA (Gibco), 25 mM HEPES (Sigma) and 1% BSA (Sigma). 8 days later, cells were treated with DMSO or a thalidomide analog for 18 hours at 37° C. and 5% CO2. mCherry+GFPlow and NOT(mCherry+GFPlow) cells were sorted by FACS using the FACS Aria Fusion (BD). DMSO treated cells were used to set the mCherry+GFPlow gate and dead cells were excluded from sorting by staining cells with 1 μg/mL DAPI (ThermoFisher). gDNA was isolated using the Maxwell RSC 48 (Promega). gDNA from cells that were unsorted and untreated were also isolated to determine the library representation on the day of compound treatment. Throughout the screen >600× coverage of the library was maintained. 3 biological replicates were carried out with a new transduction taking place each time.
A two-step PCR was used where the first PCR (PCR1) amplified the integrated degron sequence from gDNA and the second PCR (PCR2) added Illumina adaptors and barcodes to permit multiplexing. See Supp F for PCR1 and PCR2 primers. Q5 Hot Start High-Fidelity 2× Master Mix (New England Biolabs) was used for both PCRs. Sufficient gDNA was amplified in PCR1 in order to maintain >600× coverage and amplicons were purified using solid phase reversible immobilization (SPRI) beads (Beckman Coulter). Purified PCR1 products were analysed on the Tapestation 4200 (Agilent) to confirm purity prior to proceeding to PCR2. Sufficient PCR1 product was amplified in PCR2 in order to maintain >600× coverage and amplicons were run on a 2% agarose TAE gel. Target bands were excised and purified using the NucleoSpin Gel and PCR Clean-up Kit (Machery Nagel). Amplicons were analysed on the Tapestation 4200 and quantified using Qubit dsDNA HS kit (ThermoFisher). PCR products were pooled and sequenced as paired-reads on the NovaSeq (Illumina) using a SP2 200 cycles kit (Illumina).
Count distributions, percentage of read mapping, library coverage and replicate correlation per sample were assessed for QC purposes.
To carry out the library screen, we used the same plasmid construct as in our earlier flow cytometry assays, but pooling all 8,380 mutants together into one Jurkat population, ensuring a copy number of one plasmid per cell (FIG. 4B). […] These GFP-negative cells were then separated from the remaining GFP-positive population using fluorescence activated cell sorting (FACS). These two populations were then sequenced and the relative abundance of every mutant in both populations compared to provide a log FC value for each mutant sequence. This value indicated how frequently a sequence is observed in the GFP-negative population relative to the GFP-positive population, and therefore how effective a degron it is for that particular IMID compound.

O=C1CCC(N2C(=O)c3ccccc3C2=O)C(=O)N1 (centres unmarked) [A32, 2-(2,6-dioxopiperidin-3-yl)isoindoline-1,3-dione]
A32_logFC (Degron-ID 3102, SEQ ID NO 98, 46F_47Q_49P_50V_52G_53A_54D_55F_67L): 3.4
A32_logFC (Degron-ID 3105, SEQ ID NO 103, 46F_47Q_49P_50V_52G_53A_54G_55F_67L): 3.381
A32_logFC (Degron-ID 3106, SEQ ID NO 132, 46F_47Q_49P_50V_52G_53A_54H_55F_67L): 3.266
A32_logFC (Degron-ID 3107, SEQ ID NO 70, 46F_47Q_49P_50V_52G_53A_54I_55F_67L): 3.527
A32_logFC (Degron-ID 3108, SEQ ID NO 4, 46F_47Q_49P_50V_52G_53A_54K_55F_67L): 3.962
A32_logFC (Degron-ID 3109, SEQ ID NO 75, 46F_47Q_49P_50V_52G_53A_54L_55F_67L): 3.497
A32_logFC (Degron-ID 3110, SEQ ID NO 49, 46F_47Q_49P_50V_52G_53A_54M_55F_67L): 3.582
A32_logFC (Degron-ID 3111, SEQ ID NO 78, 46F_47Q_49P_50V_52G_53A_54N_55F_67L): 3.484
A32_logFC (Degron-ID 3112, SEQ ID NO 5, 46F_47Q_49P_50V_52G_53A_54P_55F_67L): 3.872
A32_logFC (Degron-ID 3116, SEQ ID NO 9, 46F_47Q_49P_50V_52G_53A_54T_55F_67L): 3.794
A32_logFC (Degron-ID 3132, SEQ ID NO 73, 46F_47R_49D_50I_52G_53A_54P_55F_67L): 3.521
A32_logFC (Degron-ID 3192, SEQ ID NO 53, 46F_47R_49E_50I_52G_53A_54P_55F_67L): 3.575
A32_logFC (Degron-ID 3252, SEQ ID NO 104, 46F_47R_49N_50I_52G_53A_54P_55F_67L): 3.38
A32_logFC (Degron-ID 3312, SEQ ID NO 69, 46F_47R_49P_50I_52G_53A_54P_55F_67L): 3.528
A32_logFC (Degron-ID 3352, SEQ ID NO 74, 46F_47R_49P_50V_52G_53A_54P_55F_67L): 3.513
A32_logFC (Degron-ID 3714, SEQ ID NO 136, 46F_47T_49E_50V_52G_53A_54R_55F_67L): 3.256
A32_logFC (Degron-ID 3799, SEQ ID NO 121, 46F_47T_49P_50I_52G_53A_54Y_55F_67L): 3.31
A32_logFC (Degron-ID 3821, SEQ ID NO 117, 46F_47T_49P_50V_52G_53A_54C_55F_67L): 3.33
A32_logFC (Degron-ID 3940, SEQ ID NO 110, 46F_47V_49E_50V_52G_53A_54A_55F_67L): 3.355
A32_logFC (Degron-ID 3954, SEQ ID NO 139, 46F_47V_49E_50V_52G_53A_54R_55F_67L): 3.254
A32_logFC (Degron-ID 3955, SEQ ID NO 63, 46F_47V_49E_50V_52G_53A_54S_55F_67L): 3.54
A32_logFC (Degron-ID 3972, SEQ ID NO 115, 46F_47V_49N_50I_52G_53A_54P_55F_67L): 3.332
A32_logFC (Degron-ID 4032, SEQ ID NO 77, 46F_47V_49P_50I_52G_53A_54P_55F_67L): 3.493
A32_logFC (Degron-ID 6496, SEQ ID NO 102, 46L_47C_49P_50I_52G_53F_54T_55C_67L): 3.382
A32_logFC (Degron-ID 6528, SEQ ID NO 135, 46L_47E_49P_50I_52G_53F_54K_55C_67L): 3.258
A32_logFC (Degron-ID 6536, SEQ ID NO 101, 46L_47E_49P_50I_52G_53F_54T_55C_67L): 3.382
A32_logFC (Degron-ID 6539, SEQ ID NO 113, 46L_47E_49P_50I_52G_53F_54Y_55C_67L): 3.343
A32_logFC (Degron-ID 6700, SEQ ID NO 60, 46L_47Q_49P_50I_52G_53F_54A_55C_67L): 3.551
A32_logFC (Degron-ID 6703, SEQ ID NO 88, 46L_47Q_49P_50I_52G_53F_54E_55C_67L): 3.442
A32_logFC (Degron-ID 6706, SEQ ID NO 122, 46L_47Q_49P_50I_52G_53F_54H_55C_67L): 3.305
A32_logFC (Degron-ID 6707, SEQ ID NO 85, 46L_47Q_49P_50I_52G_53F_54I_55C_67L): 3.453
A32_logFC (Degron-ID 6708, SEQ ID NO 96, 46L_47Q_49P_50I_52G_53F_54K_55C_67L): 3.401
A32_logFC (Degron-ID 6710, SEQ ID NO 59, 46L_47Q_49P_50I_52G_53F_54M_55C_67L): 3.553
A32_logFC (Degron-ID 6713, SEQ ID NO 86, 46L_47Q_49P_50I_52G_53F_54Q_55C_67L): 3.449
A32_logFC (Degron-ID 6714, SEQ ID NO 111, 46L_47Q_49P_50I_52G_53F_54R_55C_67L): 3.346
A32_logFC (Degron-ID 6715, SEQ ID NO 66, 46L_47Q_49P_50I_52G_53F_54S_55C_67L): 3.532
A32_logFC (Degron-ID 6719, SEQ ID NO 81, 46L_47Q_49P_50I_52G_53F_54Y_55C_67L): 3.469
A32_logFC (Degron-ID 6732, SEQ ID NO 89, 46L_47R_49P_50I_52G_53F_54P_55C_67L): 3.438
A32_logFC (Degron-ID 6775, SEQ ID NO 76, 46L_47T_49P_50I_52G_53F_54S_55C_67L): 3.495
A32_logFC (Degron-ID 6776, SEQ ID NO 87, 46L_47T_49P_50I_52G_53F_54T_55C_67L): 3.444
A32_logFC (Degron-ID 6780, SEQ ID NO 57, 46L_47V_49P_50I_52G_53F_54A_55C_67L): 3.558
A32_logFC (Degron-ID 6795, SEQ ID NO 48, 46L_47V_49P_50I_52G_53F_54S_55C_67L): 3.587
A32_logFC (Degron-ID 7840, SEQ ID NO 95, 46L_47Q_49E_50I_52G_53F_54A_55C_67L): 3.402
A32_logFC (Degron-ID 7848, SEQ ID NO 131, 46L_47Q_49E_50I_52G_53F_54K_55C_67L): 3.267
A32_logFC (Degron-ID 7853, SEQ ID NO 124, 46L_47Q_49E_50I_52G_53F_54Q_55C_67L): 3.298
A32_logFC (Degron-ID 7854, SEQ ID NO 52, 46L_47Q_49E_50I_52G_53F_54R_55C_67L): 3.575
A32_logFC (Degron-ID 7855, SEQ ID NO 51, 46L_47Q_49E_50I_52G_53F_54S_55C_67L): 3.576
A32_logFC (Degron-ID 7857, SEQ ID NO 99, 46L_47Q_49E_50I_52G_53F_54V_55C_67L): 3.397
A32_logFC (Degron-ID 7934, SEQ ID NO 128, 46L_47V_49E_50I_52G_53F_54R_55C_67L): 3.277
A32_logFC (Degron-ID 7935, SEQ ID NO 118, 46L_47V_49E_50I_52G_53F_54S_55C_67L): 3.326
